US11046716B2, “Beta-lactamase inhibitors” (priority 2015, dated 2021)
Where two headings read alike, the source gives them in different places.

Key:
[1] = target: T1, SHV-5 (Klebsiella pneumoniae, UniProt P0A3M1); test: β-lactamase enzyme inhibition assay, SHV-5 (cefotaxime substrate); type: biochemical
T1 construct: made in house; host or cells: E. coli BL21(DE3)
In short: (§1)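 Read-out is the rate of β-lactam ring hydrolysis monitored by absorbance: 300 nm for imipenem with KPC-2 and 260 nm for cefotaxime with SHV-5. Recombinant native enzymes were first incubated with compound at 37 °C for 15 min. The IC50 is the inhibitor concentration that halves the initial hydrolysis rate.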

[2] = target: T2, KPC-2 (Klebsiella pneumoniae, UniProt Q9F663); test: β-lactamase enzyme inhibition assay, KPC-2 (imipenem substrate); type: biochemical
T2 construct: made in house; host or cells: E. coli BL21(DE3)
T2 sequence (Q9F663 25-293, looked up): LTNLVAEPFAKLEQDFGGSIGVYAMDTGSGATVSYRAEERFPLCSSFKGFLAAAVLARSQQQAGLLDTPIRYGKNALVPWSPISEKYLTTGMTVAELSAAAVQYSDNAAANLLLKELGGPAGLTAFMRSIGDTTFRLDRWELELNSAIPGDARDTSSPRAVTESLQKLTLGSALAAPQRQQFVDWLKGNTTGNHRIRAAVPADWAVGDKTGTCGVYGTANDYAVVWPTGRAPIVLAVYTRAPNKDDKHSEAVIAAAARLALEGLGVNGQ
In short: as §1

[3] = target: T3, VIM-2 (Escherichia coli, UniProt Q5U7L7); test: β-lactamase enzyme inhibition assay, VIM-2 (nitrocefin substrate); type: biochemical
T3 construct: made in house; host or cells: E. coli BL21(DE3)
In short: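 Purified VIM-2 preincubated with inhibitor for 15 min at 37° C, then nitrocefin (100 μM final) added and absorbance at 486 nm followed for 10 min. Maximum hydrolysis rates compared with inhibitor-free controls; IC50 fitted from percent inhibition across inhibitor concentrations.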

[4] = target: T4, AmpC (Enterobacter cloacae, UniProt P05364); test: β-lactamase enzyme inhibition assay, p99 AmpC (nitrocefin substrate); type: biochemical
T4 construct: made in house; host or cells: E. coli BL21(DE3)
T4 sequence (P05364 21-381): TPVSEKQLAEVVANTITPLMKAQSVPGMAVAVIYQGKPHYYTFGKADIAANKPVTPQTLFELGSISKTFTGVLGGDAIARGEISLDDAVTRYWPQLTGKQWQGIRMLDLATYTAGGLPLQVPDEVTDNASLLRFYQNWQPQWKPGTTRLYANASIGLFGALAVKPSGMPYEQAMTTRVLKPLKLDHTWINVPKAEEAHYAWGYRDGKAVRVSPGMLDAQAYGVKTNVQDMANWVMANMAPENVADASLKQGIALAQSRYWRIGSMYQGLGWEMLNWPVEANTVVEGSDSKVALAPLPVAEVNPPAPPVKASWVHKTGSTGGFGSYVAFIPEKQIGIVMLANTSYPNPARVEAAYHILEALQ
In short: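 Read-out is the rate of β-lactam ring hydrolysis monitored by absorbance. Recombinant native enzymes were first incubated with compound at 37 °C for 15 min. The IC50 is the inhibitor concentration that halves the initial hydrolysis rate.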

[5] = target: OXA-48 (UniProt Q6XEC0); test: β-lactamase enzyme inhibition assay, Class D oxacillinase; type: biochemical; settings: read-out: OXA-48
[6] = tested on: E. coli expressing the Class A Extended Spectrum Beta-Lactamase (ESBL) CTX-M-15; test: Broth microdilution MIC assay with ceftazidime, E. coli CTX-M-15; type: cell-based; settings: Fixed CAZ (ceftazidime) 4 μg/mL; E. coli ESBL4 CTX-M-15
In short: (§2)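 Test compounds in 2-fold dilutions (16 to 0.125 μg/mL final) in CAMHB were combined with a β-lactam at a static 4 μg/ml final. Plates were inoculated per CLSI broth microdilution with the β-lactamase-producing strain (pre-grown 3-5 h) and incubated 16-20 h at 37° C. MIC of test compound was read visually.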

[7] = tested on: E. cloacae expressing the Class C P99; test: Broth microdilution MIC assay with ceftazidime, E. cloacae P99; type: cell-based; settings: Fixed CAZ (ceftazidime) 4 μg/mL; E. cl. 144200 p99 AmpC
In short: as §2

[8] = tested on: K. pneumoniae expressing the Class A carbapenemase KPC-2; test: Broth microdilution MIC assay with meropenem, K. pneumoniae KPC-2; type: cell-based; settings: Fixed Mero (meropenem) 4 μg/mL; K. p. 156319 KPC-3
In short: as §2

[9] = tested on: P. aeruginosa expressing the Class B carbapenemase VIM-2; test: Broth microdilution MIC assay with meropenem, P. aeruginosa VIM-2; type: cell-based; settings: Fixed Mero (meropenem) 4 μg/mL; P. aerug. 2775 VIM-2
In short: as §2

[10] = tested on: K. pneumoniae expressing the class A carbapenemase KPC-2 and the class B carbapenemase VIM-4; test: Broth microdilution MIC assay with meropenem, K. pneumoniae KPC-2 and VIM-4; type: cell-based; settings: Fixed Mero (meropenem) 4 μg/mL; K. p. A-1797 KPC-2 VIM-4
In short: as §2

[11] = tested on: K. pneumoniae producing the Class D carbapenemase OXA-48; test: Broth microdilution MIC assay with meropenem, K. pneumoniae OXA-48; type: cell-based; settings: Fixed Mero (meropenem) 4 μg/mL; K. p. 11978 OXA-48
In short: as §2

[12] = Class A, imipenem substrate, 300 nm, read-out: KPC-2
[13] = Class B, nitrocefin substrate, 486 nm, read-out: VIM-2

T1 sequence (P0A3M1 22-286): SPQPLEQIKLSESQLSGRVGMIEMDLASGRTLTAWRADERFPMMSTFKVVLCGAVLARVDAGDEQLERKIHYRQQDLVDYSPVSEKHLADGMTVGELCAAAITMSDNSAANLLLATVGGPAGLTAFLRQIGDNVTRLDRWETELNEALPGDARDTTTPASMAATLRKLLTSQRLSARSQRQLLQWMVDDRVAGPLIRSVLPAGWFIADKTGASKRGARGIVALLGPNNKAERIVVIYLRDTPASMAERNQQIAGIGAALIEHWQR

| SMILES | IC50 [1] [nM] | IC50 [2, 12] [nM] | IC50 [3, 13] [nM] | IC50 [4] [nM] | IC50 [5] [nM] | MIC (μg/mL) of Exemplary Compounds in presence of fixed β-lactams: E. coli ESBL4 CTX-M-15 [6] | MIC (μg/mL) of Exemplary Compounds in presence of fixed β-lactams: E. cl. 144200 p99 AmpC [7] | MIC (μg/mL) of Exemplary Compounds in presence of fixed β-lactams: K. p. 156319 KPC-3 [8] | MIC (μg/mL) of Exemplary Compounds in presence of fixed β-lactams: P. aerug. 2775 VIM-2 [9] | MIC (μg/mL) of Exemplary Compounds in presence of fixed β-lactams: K. p. A-1797 KPC-2 VIM-4 [10] | MIC (μg/mL) of Exemplary Compounds in presence of fixed β-lactams: K. p. 11978 OXA-48 [11] | IC50 [2] [nM] | IC50 [3] [nM] |
| --- | --- | --- | --- | --- | --- | --- | --- | --- | --- | --- | --- | --- | --- |
| NCCCC[C@@H](C(=O)N[C@H]1Cc2cccc(C(=O)O)c2OB1O)n1cc(CN)nn1 [Example 113, (R)-3-((S)-6-amino-2-(4-(aminomethyl)-1H-1,2,3-triazol-1-yl)hexanamido)-2-hydroxy-3,4-dihydro-2H-benzo[e][1,2]oxaborinine-8-carboxylic acid] | 1000 to 10000 | 100 to 1000 | < 100 | < 100 | 100 to 1000 | C (C represents an MIC of <1 μg/mL) | C (C represents an MIC of <1 μg/mL) | B (B represents an MIC between 1 and 16 μg/mL inclusive) | C (C represents an MIC of <1 μg/mL) | C (C represents an MIC of <1 μg/mL) | A (A represents an MIC>16 μg/mL) | – | – |
| NCc1cn(C[C@H](N)C(=O)N[C@H]2Cc3cccc(C(=O)O)c3OB2O)nn1 [Example 114, (R)-3-((S)-2-amino-3-(4-(aminomethyl)-1H-1,2,3-triazol-1-yl)propanamido)-2-hydroxy-3,4-dihydro-2H-benzo[e][1,2]oxaborinine-8-carboxylic acid] | 10000 to 100000 | 100 to 1000 | 1000 to 10000 | < 100 | 1000 to 10000 | C (C represents an MIC of <1 μg/mL) | C (C represents an MIC of <1 μg/mL) | C (C represents an MIC of <1 μg/mL) | C (C represents an MIC of <1 μg/mL) | B (B represents an MIC between 1 and 16 μg/mL inclusive) | B (B represents an MIC between 1 and 16 μg/mL inclusive) | – | – |
| CSCC[C@@H](C(=O)N[C@H]1Cc2cccc(C(=O)O)c2OB1O)n1cc(CN)nn1 [Example 115, (R)-3-((S)-2-(4-(aminomethyl)-1H-1,2,3-triazol-1-yl)-4-(methylthio)butanamido)-2-hydroxy-3,4-dihydro-2H-benzo[e][1,2]oxaborinine-8-carboxylic acid] | 100 to 1000 | 100 to 1000 | 100 to 1000 | < 100 | 1000 to 10000 | C (C represents an MIC of <1 μg/mL) | C (C represents an MIC of <1 μg/mL) | B (B represents an MIC between 1 and 16 μg/mL inclusive) | B (B represents an MIC between 1 and 16 μg/mL inclusive) | B (B represents an MIC between 1 and 16 μg/mL inclusive) | B (B represents an MIC between 1 and 16 μg/mL inclusive) | – | – |
| NCCn1cnnc1CC(=O)N[C@H]1Cc2cccc(C(=O)O)c2OB1O [Example 117, (R)-3-(2-(4-(2-aminoethyl)-4H-1,2,4-triazol-3-yl)acetamido)-2-hydroxy-3,4-dihydro-2H-benzo[e][1,2]oxaborinine-8-carboxylic acid] | < 100 | 100 to 1000 | 100 to 1000 | < 100 | 100 to 1000 | C (C represents an MIC of <1 μg/mL) | C (C represents an MIC of <1 μg/mL) | C (C represents an MIC of <1 μg/mL) | C (C represents an MIC of <1 μg/mL) | B (B represents an MIC between 1 and 16 μg/mL inclusive) | B (B represents an MIC between 1 and 16 μg/mL inclusive) | – | – |
| NCCn1cnc(CC(=O)N[C@H]2Cc3cccc(C(=O)O)c3OB2O)n1 [Example 118, (R)-3-(2-(1-(2-aminoethyl)-1H-1,2,4-triazol-3-yl)acetamido)-2-hydroxy-3,4-dihydro-2H-benzo[e][1,2]oxaborinine-8-carboxylic acid] | 100 to 1000 | 100 to 1000 | 1000 to 10000 | < 100 | 100 to 1000 | C (C represents an MIC of <1 μg/mL) | C (C represents an MIC of <1 μg/mL) | C (C represents an MIC of <1 μg/mL) | C (C represents an MIC of <1 μg/mL) | B (B represents an MIC between 1 and 16 μg/mL inclusive) | B (B represents an MIC between 1 and 16 μg/mL inclusive) | – | – |
| NCCn1ncnc1CC(=O)N[C@H]1Cc2cccc(C(=O)O)c2OB1O [Example 119, (R)-3-(2-(1-(2-aminoethyl)-1H-1,2,4-triazol-5-yl)acetamido)-2-hydroxy-3,4-dihydro-2H-benzo[e][1,2]oxaborinine-8-carboxylic acid] | < 100 | 100 to 1000 | 100 to 1000 | < 100 | 100 to 1000 | C (C represents an MIC of <1 μg/mL) | C (C represents an MIC of <1 μg/mL) | C (C represents an MIC of <1 μg/mL) | C (C represents an MIC of <1 μg/mL) | B (B represents an MIC between 1 and 16 μg/mL inclusive) | B (B represents an MIC between 1 and 16 μg/mL inclusive) | – | – |
| NCCc1cnnn1CC(=O)N[C@H]1Cc2cccc(C(=O)O)c2OB1O [Example 121, (R)-3-(2-(5-(2-aminoethyl)-1H-1,2,3-triazol-1-yl)acetamido)-2-hydroxy-3,4-dihydro-2H-benzo[e][1,2]oxaborinine-8-carboxylic acid] | < 100 | – | – | < 100 | < 100 | C (C represents an MIC of <1 μg/mL) | C (C represents an MIC of <1 μg/mL) | C (C represents an MIC of <1 μg/mL) | C (C represents an MIC of <1 μg/mL) | B (B represents an MIC between 1 and 16 μg/mL inclusive) | B (B represents an MIC between 1 and 16 μg/mL inclusive) | < 100 | 100 to 1000 |
| NCCn1cc(Cn2nnnc2CC(=O)N[C@H]2Cc3cccc(C(=O)O)c3OB2O)nn1 [Example 123, (R)-3-(2-(1-((1-(2-aminoethyl)-1H-1,2,3-triazol-4-yl)methyl)-1H-tetrazol-5-yl)acetamido)-2-hydroxy-3,4-dihydro-2H-benzo[e][1,2]oxaborinine-8-carboxylic acid] | < 100 | – | – | < 100 | 100 to 1000 | C (C represents an MIC of <1 μg/mL) | C (C represents an MIC of <1 μg/mL) | C (C represents an MIC of <1 μg/mL) | A (A represents an MIC>16 μg/mL) | B (B represents an MIC between 1 and 16 μg/mL inclusive) | B (B represents an MIC between 1 and 16 μg/mL inclusive) | 100 to 1000 | 1000 to 10000 |
